Laboratory results: patent US20050147989A1 (priority 2003, published 2005)

Biological target: association reaction between recombinantly prepared mouse PrP (amino acids 23-231) and PrP-Sc aggregates prepared from the brain tissue of CJD patients (UniProt P04156+P04925)
Format: binding, human PrP-Sc (CJD patients); mouse PrP
Conditions: for influence on association of fluorescence-labeled recombinant PrP to prion aggregates: SIFT, 20 mM potassium phosphate buffer, pH 6.0, 0.1% Nonidet-P40

Row | Structure (SMILES) | number of bins per sector in two-dimensional histograms of the fluorescence intensity (FIG. 4, two-dimensional SIFT evaluation by sectors) | influence on association of fluorescence-labeled recombinant PrP to prion aggregates
1 | CCCCCCCC/C=C\CCCCCCCCOCC(C[N+](C)(C)CCNC(=O)C(CCCNCCCN)NCCCN)OCCCCCCCC/C=C\CCCCCCCC.O=C([O-])C(F)(F)F (stereo not drawn) [DOSPA, 2,3-dioleyloxy-N-[2-(sperminecarboxamido)ethyl]-N,N-dimethyl-1-propanaminium trifluoroacetate] | number of bins is decreased in sectors 1 to 9 | inhibits the association of fluorescence-labeled recombinant PrP to prion aggregates at low micromolar concentrations
2 | CCCCCCCC/C=C\CCCCCCCC(=O)OC[C@H](COP(=O)(O)OCCN)OC(=O)CCCCCCC/C=C\CCCCCCCC [DOPE, dioleyl-L-phosphatidylethanolamine] | – | no influence on aggregation was found
